Measurements: article PMC11013284, “Chemoselective Synthesis and Anti-Kinetoplastidal Properties of 2,6-Diaryl-4H-tetrahydro-thiopyran-4-one S-Oxides: Their Interplay in a Cascade of Redox Reactions from Diarylideneacetones” (Molecules, 2024)
Read-outs that look alike come from different tables or passages of the source.

Tests used:
[1] = system: Trypanosoma brucei brucei trypomastigotes, suramin-sensitive strain (Squib 427); experiment: T. b. brucei growth/viability assay (resazurin); assay type: cell-based; settings: 3 days
Description: After 3 days, parasite growth was assessed fluorimetrically following the addition of resazurin. After 24 h at 37 °C, fluorescence was measured (λex = 550 nm, λem = 590 nm). The results were expressed as a percentage reduction in parasite growth/viability compared to control wells, and a 50% inhibitory concentration (IC50) was calculated.

[2] = system: Trypanosoma cruzi (Tulahuen CL2 β-galactosidase) amastigotes in hMRC-5SV2 cells; experiment: T. cruzi intracellular amastigote assay (β-galactosidase/CPRG); assay type: cell-based
Description: A nifurtimox-sensitive strain (Tulahuen CL2 β-galactosidase) in human lung fibroblast hMRC-5SV2 cells was incubated for 7 days in 96-well plates with five concentrations of compound (64, 16, 4, 1, and 0.25 μM). The parasitic burden was evaluated through the activity of the enzyme β-galactosidase on a specific chlorophenol red ß-D-galactopyranoside (CPRG) substrate. Live parasites converted the yellow-orange CPRG substrate into the red chromophore chlorophenol red, yielding a dark-red solution, which could be quantitatively measured at 540 nm after 4 h of incubation at 37 °C. The results were expressed as a percentage reduction in parasite growth/viability compared to control wells, and an IC50 was calculated.

[3] = system: L. infantum (MHOM/MA(BE)/67) amastigotes in primary peritoneal mouse macrophages; experiment: L. infantum intramacrophage amastigote assay (microscopic burden); assay type: cell-based, Leishmania infantum; settings: 5 days, mouse macrophages as host
Description: L. infantum (MHOM/MA(BE)/67 strain) amastigote were incubated for 5 days in 96-well plates with five concentrations of compound (64, 16, 4, 1, and 0.25 μM). Primary peritoneal mouse macrophages were used as host cells. Parasite burdens (i.e., the number of amastigotes per macrophage) were microscopically assessed. The results were expressed as a percentage reduction in parasite burden compared to untreated control wells, and an IC50 was calculated.

[4] = in vitro; settings: human, CC50 hMRC-5 (cytotoxicity)
Description: (§1) The cytotoxicity of compounds was evaluated toward human diploid embryonic lung fibroblast hMRC-5SV2 cells, derived from fetal lung tissue and first described in 1970. hMRC-5SV2 cells were cultured in 96-well plates with five concentrations of the compound (64, 16, 4, 1, and 0.25 μM). After 3 days of incubation, the cell viability was assessed fluorimetrically after the addition of resazurin, and fluorescence was measured (λex = 550 nm, λem = 590 nm). The results were expressed as a percentage reduction in cell growth/viability compared to control wells, and a 50% cytotoxic concentration (CC50) was calculated. The reference cytotoxic drugs were tamoxifen or ivermectin. Additionally, toxicity toward mouse macrophages was qualitatively observed. Three concentrations were included (64, 16, and 4 µM), and the range of toxicity was ranked from the least toxic to the most toxic compound.

[5] = system: L. donovani LV9 axenic amastigotes; experiment: L. donovani axenic amastigote assay (SYBR green I); assay type: cell-based, Leishmania donovani; settings: for IC50: LV9, read-out: IC50 ± SD L. donovani axenic amastigotes; for IC90 / IC99 ± SD LV9 axenic amastigotes: Table S6; for IC90: read-out: IC90 ± SD LV9 axenic amastigotes
Description: L. donovani amastigote forms were suspended to yield 10^7 cells/mL. The final compound concentrations used were 100 µM, 10 µM, 1 µM, 500 nM, and 50 nM. Duplicates were used for each concentration. Cultures were incubated at 37 °C for 72 h in the dark and under a 5% CO2 atmosphere; then, the viability of the amastigotes was assessed using the SYBR® green I (Invitrogen, France) incorporation method. Parasite growth was determined by using SYBR® Green I, a dye with marked fluorescence enhancement upon contact with parasite DNA. Parasites were lysed following Direct PCReCell Genotyping without DNA isolation protocol (Euromedex, Souffelweyersheim, France). A total of […] of SYBR Green I was added to each well, and the contents were mixed. Fluorescence was measured with Mastercylcer® ep realplex (Eppendorf, Montesson, France). The fluorescence obtained was compared to those from the range obtained with different parasite densities.

[6] = system: WT LV9 L. donovani intramacrophage amastigotes; experiment: L. donovani intramacrophage amastigote assay; assay type: cell-based, Leishmania donovani; settings: for IC90 / IC99 ± SD LV9 intramacrophage amastigotes: Table S6; for IC90: read-out: IC90 ± SD LV9 intramacrophage amastigotes
[7] = system: macrophages
[8] = Solubility observations (crystals in assay, insolubility in solvents); assay type: physicochemical; settings: noted in L. donovani assay, Table S5
[9] = system: human diploid embryonic lung fibroblast hMRC-5SV2 cells; experiment: in vitro
Description: as §1

[10] = system: WT LV9 L. donovani promastigotes; experiment: L. donovani promastigote assay (MTT), wild type; assay type: cell-based; settings: Leishmania donovani, 72 h, 3 days; read-out: IC50 ± SD WT LV9 L. donovani promastigotes
Description: L. donovani promastigote forms from the logarithmic phase culture were suspended to yield 10^6 cells/mL. Miltefosine was used as the antileishmanial reference compound. Compounds to be evaluated and miltefosine were distributed in the plates by making a serial dilution. The final concentrations used were between 100 µM and 50 nM. Triplicates were used for each concentration. After a 3-day incubation period at 27 °C in the dark and under a 5% CO2 atmosphere, the viability of the promastigotes was assessed using the tetrazolium-dye (MTT) colorimetric method, which measures the reduction of a tetrazolium component (MTT) into an insoluble formazan product by the mitochondria of viable cells. After the incubation of the cells with the MTT reagent, a detergent solution (Triton X100, HCl) was added to lyse the cells and dissolve the colored crystals. The absorbance at 570 nm, directly proportional to the number of viable cells, was measured using an ELISA plate reader. The results were expressed as the concentrations inhibiting parasite growth by 50% (IC50) ± SD after a 3-day incubation period.

[11] = Trypanosoma cruzi, TULAHUEN, 168 h, intracellular amastigotes, 7 days, read-out: IC50 T. cruzi intramacrophage amastigotes (converted)
[12] = Leishmania infantum, Macrophage, 120 h
[13] = Leishmania donovani, WT LV9, ± SD in Tables S5/S6, read-out: IC50 L. donovani intramacrophage amastigotes
[14] = intracellular amastigotes, 7 days, read-out: IC50 T. cruzi intramacrophage amastigotes (converted)
[15] = WT LV9, ± SD in Tables S5/S6, read-out: IC50 L. donovani intramacrophage amastigotes
[16] = bracketed value after the intramacrophage IC50 (Table S5), Table S6

Structure (SMILES) | IC50 ([1]; Trypanosoma brucei, 72 h) [µM] | IC50 [3, 12] [µM] | CC50 at 3 days [4] [µM] | IC99 ± SD LV9 axenic amastigotes [5] [µM] | IC50 [6, 13] [µM] | IC99 ± SD LV9 intramacrophage amastigotes [6] [µM] | presence of crystals, concentration range [8] [µM] | IC50 [1] [µM] | IC50 [2, 14] [µM] | IC50 [3] [µM] | CC50 [9] [µM] | IC50 [6, 15] [µM] | observed macrophage death / lysis observed at [7, 16] [µM] | also measured
CN(C)c1ccc(/C=C/C(=O)/C=C/c2ccc(N(C)C)cc2)cc1 [1u] | 0.8 | > 64 | 62.3 | 567.3 ± 0.9 | 6.3 ± 0.8 | 9.9 ± 1.3 |  |  |  |  |  |  |  | IC50 [2, 11]: 36.9 µM; IC50 ([5]; Leishmania donovani): 8.7 ± 0.6 µM; IC90 ([5]; Leishmania donovani): 64.2 ± 0.7 µM; IC90 ([6]; Leishmania donovani): 7.8 ± 1 µM; observed macrophage death / lysis observed at [7]: 200 µM
O=C(/C=C/c1ccccc1)/C=C/c1ccccc1 [1a] | 0.4 | 20.3 | 52.9 |  | > 100 |  | 12.5 to 200 |  |  |  |  |  |  | IC50 ([2]; Trypanosoma cruzi, TULAHUEN, 168 h, read-out: IC50 T. cruzi intramacrophage amastigotes): 16 µM; observed macrophage death / lysis observed at [7]: 200 µM
Cc1ccccc1C1CC(=O)CC(c2ccccc2C)S1 (racemic) [2b] |  |  |  |  |  |  |  | > 64 | ≥ 64 | 43.1 | > 64 | 14.5 ± 1.9 | > 50 | presence of crystals (asterisk mark) [8]: ** (presence of crystals at > 100 µM)
Cc1ccc(/C=C/C(=O)/C=C/c2ccccc2)cc1 [1’a] |  |  |  |  |  |  | 3.1 to 200 | 0.5 | 2.6 | 32.5 | 47 |  |  | 
CN(C)c1ccc([C@H]2CC(=O)C[C@H](c3ccc(N(C)C)cc3)S2)cc1 (racemic) [2u] |  |  |  | 91.1 ± 16.2 |  | 7.1 ± 15.9 |  | 1.5 | 2.5 | 43.1 | 5 | 4.5 ± 10 | 100 | IC50 [5]: 57.5 ± 10.2 µM; IC90 [5]: 71.7 ± 12.7 µM; IC90 [6]: 5.6 ± 12.5 µM
C[C@@H]1[C@H](O)[C@@H](C)/C=C/C=C/C=C/C=C/C=C/C=C/C=C/[C@H](O[C@@H]2O[C@H](C)[C@@H](O)[C@H](N)[C@@H]2O)C[C@@H]2O[C@](O)(C[C@@H](O)C[C@@H](O)[C@H](O)CC[C@@H](O)C[C@@H](O)CC(=O)O[C@H]1C)C[C@H](O)[C@H]2C(=O)O [Amphotericin B, reference compound] |  |  | > 64 | 0.039 | 0.04 | 0.07 |  |  |  |  |  |  |  | IC50 [10]: 0.04 ± 0.01 µM; IC50 ([5]; Leishmania donovani): 0.024 µM; IC90 ([5]; Leishmania donovani): 0.03 µM; IC50 ([6]; Leishmania donovani, as worded in footnote a of Table S5, value stands in a middle column of the table, read-out: IC50 against leishmanial WT and HePC-R intramacrophagic amastigotes): 0.08 ± 0.024 µM; IC90 ([6]; Leishmania donovani): 0.05 µM
Cc1ccc(/C=C/C(=O)/C=C/c2ccc(C)cc2)cc1 [1c] | 9.3 | > 64 | 32.5 |  |  |  | 25 to 100 |  |  |  |  |  |  | IC50 [2, 11]: 41.9 µM
CN(C)c1ccc(/C=C/C(=O)/C=C/c2nccs2)cc1 [1’s] |  |  |  |  |  |  |  | 0.4 | 11 | 38 | > 64 | 11.5 ± 0.6 | > 37.5 | presence of crystals (asterisk mark) [8]: * (presence of crystals at > 50 µM)
